Source: the NIST ThermoML archive (doi:10.1016/j.tca.2005.04.002)
± gives the expanded uncertainty stated by the source.

assay: mn = molality of the nth substance listed, in mol/kg; conditions: 298.15 K; 101.33 kPa; Liquid; Calvet calorimetry; m1 = 0.1

molar enthalpy of solution [kcal/mol]	SMILES
1.86 ± 0.0359	C[C@H](N)C(=O)O [(S)-2-aminopropanoic acid] + O
2.69 ± 0.0454	N[C@@H](CO)C(=O)O [L-serine] + O
3.38 ± 0.0526	NCC(=O)O [2-aminoacetic acid] + O
